Experimental data reported in US4468511A, “C-20- And C-23-Modified macrolide derivatives” (Eli Lilly and Company, priority 1983, dated 1984).
Converted amounts (≈) assume the structure as drawn. Read-outs that look alike come from different tables or passages of the source.

Key:
[1] = tested on: Streptococcus pyogenes C203; assay: Protection of mice experimentally infected with S. pyogenes C203; assay type: in vivo; conditions: mg/kg × 2, doses given 1 and 4 hours postinfection
Experimental: Some of the derivatives of this invention have shown in vivo antimicrobial activity against experimentally-induced infections in laboratory animals. When two doses of test compound were administered to mice experimentally infected with S. pyogenes C203, the activity observed was measured as an ED50 value [effective dose in mg/kg to protect 50% of the test animals: see Warren Wick, et al., J. Bacteriol. 81, 233-235 (1961)].

[2] = tested on: Staphylococcus aureus V41; assay: MIC, standard agar-dilution assay; assay type: cell-based; conditions: Staphylococcus aureus, V41
Experimental: (§1) Certain of the derivatives are active against some gram-negative bacteria, such as Pasteurella species. The MIC's in Table II were determined by standard agar-dilution assays. The MIC's in Table III were obtained using a conventional broth-dilution microtiter test.

[3] = tested on: Klebsiella pneumoniae X26; assay: MIC, standard agar-dilution assay; assay type: cell-based; conditions: agar-dilution; Klebsiella pneumoniae X26; read-out: MIC
How it was run: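 Two formats were used. Broth dilution in microtiter plates served for Pasteurella and Mycoplasma, while agar dilution served for Klebsiella.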

[4] = tested on: Streptococcus pneumoniae Park I; assay: MIC, standard agar-dilution assay; assay type: cell-based; conditions: agar-dilution; Streptococcus pneumoniae Park I; read-out: MIC
Experimental: as §1

Escherichia coli TEM = assay: MIC, standard agar-dilution assay; assay type: cell-based
How it was run: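 Antibacterial activity toward the gram-negative organism Escherichia coli was assessed by conventional agar dilution. The MIC, reported in ug/mL, is the minimum compound concentration on agar that prevents growth.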

[5] = tested on: Streptococcus pyogenes C203; assay: MIC, standard agar-dilution assay; assay type: cell-based
Experimental: as §1

[6] = tested on: Streptococcus Group D X66; assay: MIC, standard agar-dilution assay; assay type: cell-based
Experimental: as §1

Escherichia coli EC14 = assay: MIC, standard agar-dilution assay; assay type: cell-based
Experimental: as §1

[7] = tested on: Staphylococcus aureus X1.1; assay: MIC, standard agar-dilution assay; assay type: cell-based; conditions: Staphylococcus aureus, X1.1
How it was run: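 A standard agar-dilution assay was used to test compounds against the Staphylococcus aureus isolate X1.1. Bacterial growth on agar with different compound concentrations was assessed, and the minimum inhibitory concentration was recorded in ug/mL.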

[8] = tested on: Klebsiella pneumoniae KAE; assay: MIC, standard agar-dilution assay; assay type: cell-based; conditions: agar-dilution; Klebsiella pneumoniae KAE; read-out: MIC
How it was run: (§2)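 Method depends on organism. Klebsiella pneumoniae was assayed on agar. Pasteurella spp. and Mycoplasma gallisepticum were assayed in broth microtiter dilution.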

[9] = tested on: Streptococcus pyogenes 9960; assay: MIC, standard agar-dilution assay; assay type: cell-based
Experimental: as §1

[10] = tested on: Pasteurella multocida 68C; assay: MIC, conventional broth-dilution microtiter test; assay type: cell-based; conditions: Pasteurella multocida, 68C
How it was run: as §2

[11] = tested on: Mycoplasma gallisepticum 34159; assay: MIC, conventional broth-dilution microtiter test; assay type: cell-based; conditions: Mycoplasmoides gallisepticum
How it was run: as §2

Mycoplasma gallisepticum = assay: MIC, conventional broth-dilution microtiter test; assay type: cell-based; conditions: Mycoplasmoides gallisepticum
How it was run: as §2

[12] = tested on: Pasteurella multocida 60A; assay: MIC, conventional broth-dilution microtiter test; assay type: cell-based
How it was run: as §2

[13] = tested on: Pasteurella multocida 40G; assay: MIC, conventional broth-dilution microtiter test; assay type: cell-based
How it was run: as §2

[14] = tested on: Pasteurella hemolytica 41D; assay: MIC, conventional broth-dilution microtiter test; assay type: cell-based
How it was run: as §2

Streptococcus sp. 80 = assay: MIC, conventional broth-dilution microtiter test; assay type: cell-based
Experimental: as §1

Mycoplasma synoviae = assay: MIC, conventional broth-dilution microtiter test; assay type: cell-based; conditions: Mycoplasmopsis synoviae; broth-dilution microtiter; Mycoplasma synoviae; read-out: MIC
How it was run: (§3)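 Agar plates containing graded compound levels gave the Klebsiella value. Graded broth dilutions in microtiter plates gave the Pasteurella and Mycoplasma values.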

[15] = tested on: Pasteurella multocida 22A; assay: MIC, conventional broth-dilution microtiter test; assay type: cell-based
How it was run: as §2

[16] = tested on: Pasteurella hemolytica 23C; assay: MIC, conventional broth-dilution microtiter test; assay type: cell-based
How it was run: as §2

[17] = tested on: Pasteurella multocida 17E; assay: MIC, conventional broth-dilution microtiter test; assay type: cell-based
How it was run: as §2

[18] = tested on: Pasteurella hemolytica 22C; assay: MIC, conventional broth-dilution microtiter test; assay type: cell-based; conditions: broth-dilution microtiter; Pasteurella hemolytica 22C; read-out: MIC
How it was run: as §2

Mycoplasma hyorhinis = assay: MIC, conventional broth-dilution microtiter test; assay type: cell-based; conditions: broth-dilution microtiter; Mycoplasma hyorhinis; read-out: MIC
How it was run: as §3

Staphylococcus aureus = assay: MIC, conventional broth-dilution microtiter test; assay type: cell-based; conditions: broth-dilution microtiter, read-out: MIC
Experimental: as §1

[19] = tested on: Mycoplasma gallisepticum 41313; assay: MIC, conventional broth-dilution microtiter test; assay type: cell-based; conditions: Mycoplasmoides gallisepticum
How it was run: as §2

Pasteurella multocida = assay: Pasteurella infection in one-day old chicks; assay type: in vivo; conditions: subcutaneous, 30 mg/kg × 2, 1 and 4 hours post-challenge
Experimental: Certain of the formula 1 compounds of this invention have also shown in vivo activity against infections induced by gram-negative bacteria. Table V summarizes the results of tests in which illustrative compounds were evaluated against a Pasteurella infection in one-day old chicks. The compounds were administered parenterally after challenge of the chicks with Pasteurella multocida (0.1 ml of a 10^-4 dilution of a twenty-hour tryptose broth culture of an avian P. multocida given subcutaneously). In these tests, unless indicated otherwise, all non-medicated infected chicks died within 24 hours of Pasteurella challenge. In the tests summarized in Table V, the compounds were administered by subcutaneous injection at a dosage of 30 mg/kg, 1 and 4 hours post-challenge of the chicks with P. multocida.

[20] = tested on: Staphylococcus epidermidis EPI1; assay: microbe, parasite or virus in culture; assay type: cell-based; conditions: Staphylococcus epidermidis, EPI1
Experimental: (§4) The MIC's in Table II were determined by standard agar-dilution assays. The MIC's in Table III were obtained using a conventional broth-dilution microtiter test.

[21] = tested on: Staphylococcus aureus S13E; assay: microbe, parasite or virus in culture; assay type: cell-based
Experimental: as §4

[22] = tested on: Staphylococcus epidermidis EPI2; assay: MIC, standard agar-dilution assay; assay type: cell-based; conditions: agar-dilution; Staphylococcus epidermidis EPI2; read-out: MIC
Experimental: as §4

[23] = tested on: Haemophilus influenzae C.L.; assay: MIC, standard agar-dilution assay; assay type: cell-based
Experimental: as §4

[24] = tested on: Haemophilus influenzae 76; assay: MIC, standard agar-dilution assay; assay type: cell-based
Experimental: as §4

[25] = tested on: Staphylococcus aureus X400; assay: MIC, standard agar-dilution assay; assay type: cell-based
Experimental: as §4

CCC1OC(=O)CC(O)C(C)C(OC2OC(C)C(O)C(N(C)C)C2O)C(CCNCCc2ccccc2)CC(C)C(=O)C=CC(C)=CC1CO (stereo not drawn) [Compound 5, 20-N-Phenethylamino-20-deoxy-20-dihydro-OMT]
ED50 ([1]; C203, mice, oral, read-out: ED50 Oral): > 100 mg/kg
ED50 ([1]; C203, sc, mice, subcutaneous, read-out: ED50 Subcutaneous): 7.2 mg/kg
MIC [2]: 8 µg/mL (≈ 11.4 µM)
MIC [3]: 4 µg/mL (≈ 5.69 µM)
MIC [4]: 1 µg/mL (≈ 1.42 µM)
MIC (Escherichia coli TEM; Escherichia coli): 8 µg/mL (≈ 11.4 µM)
MIC ([5]; Streptococcus pyogenes, C203): 2 µg/mL (≈ 2.85 µM)
MIC [6]: 8 µg/mL (≈ 11.4 µM)
MIC (Escherichia coli EC14; Escherichia coli, EC14): 64 µg/mL (≈ 91 µM)
MIC [7]: 4 µg/mL (≈ 5.69 µM)
MIC [8]: > 128 µg/mL
MIC ([9]; agar-dilution, Streptococcus 9960, read-out: MIC): 16 µg/mL (≈ 22.8 µM)
MIC [10]: 1.56 µg/mL (≈ 2.22 µM)
MIC [11]; 34159: 50 µg/mL (≈ 71.1 µM)
MIC (Mycoplasma gallisepticum): 1.56 µg/mL (≈ 2.22 µM)
MIC ([12]; broth-dilution microtiter, Pasteurella multocida 60A, Avian isolate, read-out: MIC): 3.12 µg/mL (≈ 4.44 µM)
MIC ([13]; broth-dilution microtiter, Pasteurella multocida 40G, read-out: MIC): 6.25 µg/mL (≈ 8.89 µM)
MIC ([14]; broth-dilution microtiter, Pasteurella hemolytica 41D, read-out: MIC): 3.12 µg/mL (≈ 4.44 µM)
MIC (Streptococcus sp. 80; Streptococcus, SP.80): 1.56 µg/mL (≈ 2.22 µM)
MIC (Mycoplasma synoviae): 3.12 µg/mL (≈ 4.44 µM)
MIC ([15]; broth-dilution microtiter, Pasteurella multocida 22A, read-out: MIC): 6.25 µg/mL (≈ 8.89 µM)
MIC ([16]; broth-dilution microtiter, Pasteurella hemolytica 23C, read-out: MIC): 3.12 µg/mL (≈ 4.44 µM)
MIC ([17]; broth-dilution microtiter, Pasteurella multocida 17E, Bovine isolate, read-out: MIC): 3.12 µg/mL (≈ 4.44 µM)
MIC [18]: 6.25 µg/mL (≈ 8.89 µM)
MIC (Mycoplasma hyorhinis): > 50 µg/mL
MIC (Staphylococcus aureus): 6.25 µg/mL (≈ 8.89 µM)
MIC [19]; 41313: 50 µg/mL (≈ 71.1 µM)
Number of Deaths/Number Treated (Pasteurella multocida): 1/10
MIC [20]: 4 µg/mL (≈ 5.69 µM)
MIC [21]: 8 µg/mL (≈ 11.4 µM)
MIC [22]: 16 µg/mL (≈ 22.8 µM)
MIC ([23]; Haemophilus influenzae): 8 µg/mL (≈ 11.4 µM)
MIC ([24]; Haemophilus influenzae, 76): 8 µg/mL (≈ 11.4 µM)
MIC ([25]; Staphylococcus aureus, X400): 16 µg/mL (≈ 22.8 µM)

CCC1OC(=O)CC(O)C(C)C(OC2OC(C)C(O)C(N(C)C)C2O)C(CCOc2ccccc2)CC(C)C(=O)C=CC(C)=CC1CN1CCCCCCC1 (stereo not drawn) [Compound 34, 20-O-Phenyl-20-dihydro-23-Octahydroazocin-1-yl-OMT]
MIC [2]: 0.25 µg/mL (≈ 0.324 µM)
MIC [3]: 8 µg/mL (≈ 10.4 µM)
MIC [4]: 0.12 µg/mL (≈ 0.156 µM)
MIC (Escherichia coli TEM; agar-dilution, Escherichia coli TEM, read-out: MIC): 8 µg/mL (≈ 10.4 µM)
MIC ([5]; agar-dilution, Streptococcus pyogenes C203, read-out: MIC): 0.12 µg/mL (≈ 0.156 µM)
MIC [6]: 2 µg/mL (≈ 2.59 µM)
MIC (Escherichia coli EC14; agar-dilution, Escherichia coli EC14, read-out: MIC): > 128 µg/mL
MIC [7]: 0.25 µg/mL (≈ 0.324 µM)
MIC [8]: > 128 µg/mL
MIC [9]; 9960: 2 µg/mL (≈ 2.59 µM)
MIC [10]: 3.12 µg/mL (≈ 4.05 µM)
MIC ([11]; broth-dilution microtiter, Mycoplasma gallisepticum 34159, Resistant strain, read-out: MIC): 50 µg/mL (≈ 64.8 µM)
MIC (Mycoplasma gallisepticum): 0.097 µg/mL (≈ 0.126 µM)
MIC ([12]; Pasteurella multocida, 60A): 6.25 µg/mL (≈ 8.11 µM)
MIC ([13]; Pasteurella multocida, 40G): 3.12 µg/mL (≈ 4.05 µM)
MIC ([14]; Pasteurella, 41D): 3.12 µg/mL (≈ 4.05 µM)
MIC (Streptococcus sp. 80; broth-dilution microtiter, Streptococcus sp. 80, read-out: MIC): 0.78 µg/mL (≈ 1.01 µM)
MIC (Mycoplasma synoviae): 12.5 µg/mL (≈ 16.2 µM)
MIC ([15]; Pasteurella multocida, 22A): 6.25 µg/mL (≈ 8.11 µM)
MIC ([16]; Pasteurella, 23C): 3.12 µg/mL (≈ 4.05 µM)
MIC ([17]; Pasteurella multocida, 17E): 3.12 µg/mL (≈ 4.05 µM)
MIC [18]: 1.56 µg/mL (≈ 2.02 µM)
MIC (Mycoplasma hyorhinis): 50 µg/mL (≈ 64.8 µM)
MIC (Staphylococcus aureus): 0.39 µg/mL (≈ 0.506 µM)
MIC ([19]; broth-dilution microtiter, Mycoplasma gallisepticum 41313, Resistant strain, read-out: MIC): 25 µg/mL (≈ 32.4 µM)
Number of Deaths/Number Treated (Pasteurella multocida): 10/10
MIC [20]: 0.25 µg/mL (≈ 0.324 µM)
MIC [21]: 0.25 µg/mL (≈ 0.324 µM)
MIC [22]: 0.12 µg/mL (≈ 0.156 µM)
MIC ([23]; agar-dilution, Haemophilus influenzae C.L., Ampicillin-sensitive strain, read-out: MIC): 4 µg/mL (≈ 5.19 µM)
MIC ([24]; agar-dilution, Haemophilus influenzae 76, Ampicillin-resistant strain, read-out: MIC): 8 µg/mL (≈ 10.4 µM)
MIC ([25]; agar-dilution, Staphylococcus aureus X400, Methicillin-resistant strain, read-out: MIC): 0.5 µg/mL (≈ 0.648 µM)
